Laboratory results from patent publication US11419878B2, “Medicine obtained by combining FXR agonist and ARB” (Intercept Pharmaceuticals, Inc., priority 2016, dated 2022).

Columns and labels:
[1] = test system: Otsuka Long-Evans Tokushima Fatty (OLETF) rats administered porcine serum (PS); experiment: Rat NASH model (OLETF rats given porcine serum), Sirius Red histology of hepatic fibrosis; type: in vivo; details: obeticholic acid 30 mg/kg/day and/or losartan 30 mg/kg/day oral; for fibrosis index (FI) as fraction of the level in the positive control group: PS 8 weeks, p<0.01; for progression of hepatic fibrosis (micrographs of Sirius Red-stained liver sections): PS i.p. twice weekly 8 weeks
Experimental: As a rat NASH model, Otsuka Long-Evans Tokushima. Fatty (OLETF) rats, which are known as a model for naturally-occurring type II diabetes with obesity, were administered porcine serum (PS) in order to experimentally induce liver fibrosis, and the therapeutic effects of distilled water (vehicle administration group), obeticholic acid (an FXR agonist) and losartan (an ARB) (administration groups, combined administration group) were investigated according to the following method.
Male OLETF rats (n=40) and Long-Evans Tokushima Otsuka (LETO) rats=10; non-diabetic negative control group)
Obeticholic acid (obtained from Intercept Pharmaceuticals, Inc. via Sumitomo Dainippon Pharma Co., Ltd.) was used as an FXR agonist, and commercial losartan (potassium salt of losartan; referred to in this working example simply as “losartan”) was used as an ARB.
Obeticholic acid (30 mg/kg/day) and/or losartan (30 mg/kg/day) was/were given by forced oral administration; the administration period was 8 weeks in all cases.
12-week-old OLETF rats were randomly divided into 4 groups (G2, G3, G4, G5) (n=10 for each group) and given intraperitoneal administrations of 1.0 ml/kg of porcine serum (PS) twice weekly for 8 weeks. 12-week-old LETO rats (n=10) were taken as group G1 and administered PS in the same manner. On the same day on which PS administration was begun, the group G3 and G4 rats were respectively administered obeticholic acid (30 mg/kg/day) and losartan (30 mg/kg/day) daily for 8 weeks by forced continuous oral administration. The group G5 rats were given daily combined administration of obeticholic acid (30 mg/kg/day) and losartan (30 mg/kg/day) for 8 weeks in the same manner. The rats in the G1 group (LETO) and G2 group (OLETF) were administered distilled water as a vehicle instead of the drugs and taken as the negative and positive control group respectively (with the same administration method as in the drug groups).
In order to evaluate the progression of hepatic fibrosis, formalin-fixed paraffin-embedded liver sections (5 μm in width) were taken from rats that had completed the above testing and stained with Sirius Red. Micrographs of the stained sections were taken and collected (in all of the rats, microscopic images were collected with a total of 10 fields per sample), and the micrographs of the various groups were compared. In order to quantitate the progression of fibrosis in the various groups, a semiquantitative analysis of the histological characteristics of the images of the stained specimens collected was conducted using ImageJ software from the NIH (National Institutes of Health).

[2] = test system: C57Bl/6J mice fed a choline-deficient, amino acid-defined, high-fat diet (CDAHFD); experiment: Murine NASH model (CDAHFD-fed mice), H&E histology: liver cell swelling, fatty degeneration, NAS; type: in vivo, mouse; details: obeticholic acid 30 mg/kg/day and/or losartan 30 mg/kg/day oral, 3 weeks from 2.5 weeks of diet
Description: The accepted pathological diagnostic criterion for NASH is “observation of liver cell ballooning accompanied by inflammation in addition to large-droplet hepatic steatosis.” Matteoni et al. conducted a long-term follow-up study of patients with NAFLD, classifying the disease based on pathology findings into 4 types (type 1: fatty liver alone, type 2: fat accumulation plus inflammatory cell infiltration, type 3: fat accumulation plus ballooning hepatocyte degeneration, type 4: fat accumulation/ballooning hepatocyte degeneration plus Mallory-Denk bodies or fibrosis). […] In order to reduce differences among individual observers and institutions, the Nonalcoholic Steatohepatitis Clinical Research Network has proposed a pathodiagnostic scoring system in which the extent of fatty degeneration, inflammation, and hepatocyte ballooning is scored (NAS: NAFLD Activity Score) (Matteoni C A, Younossi Z M, Gramlich T, Boparai N, Liu Y C, McCullough A J: Nonalcoholic fatty liver disease: A spectrum of clinical and pathological severity. Gastroenterology, 116; 1413-1419, 1999). The pathodiagnostic standards making up the NASH score were evaluated using the following animal model, and the individual and combined effects of an FXR agonist (obeticholic acid) and an ARB (losartan) were studied. […]

| Compound | fibrosis index (FI) as fraction of the level in the positive control group [1] | progression of hepatic fibrosis (micrographs of Sirius Red-stained liver sections) [1] | liver cell swelling (positive area rate, improvement) [2] |
| --- | --- | --- | --- |
| CC[C@H]1[C@@H](O)[C@@H]2[C@H](CC[C@]3(C)[C@@H]([C@H](C)CCC(=O)O)CC[C@@H]23)[C@@]2(C)CC[C@@H](O)C[C@@H]12 [obeticholic acid, 3α,7α-dihydroxy-6α-ethyl-5β-cholan-24-oic acid] | approximately 6/10 | moderately inhibited | tended to be inhibited |
| CCCCc1nc(Cl)c(CO)n1Cc1ccc(-c2ccccc2-c2nn[nH]n2)cc1 [losartan] | 7/10 | moderately inhibited | no improving tendency whatsoever |
